Reference: patent US20060160871A1, “Stable non-crystalline formulation comprising losartan” (Nektar Therapeutics, priority 2004, published 2006)

Key:
[1] = Differential Scanning Calorimetry (DSC): amorphous form and glass transition temperature; assay type: physicochemical; conditions: specific heat as a function of temperature
Protocol: DSC was used to determine glass transition temperatures. This technique provides a measure of the glass transition characteristics of amorphous materials. In addition, the absence of a melting point is indicative of the lack of three dimensional order characteristic of crystalline materials. A Perkin-Elmer™ DSC 7 (Perkin-Elmer Ltd, UK) was used. 1-5 mg samples were examined in sealed, crimped aluminium pans, under an atmosphere of nitrogen. Samples were measured using a TA DSC-2920 instrument (TA Instruments, New Castle, Del.). About 5-10 mg sample was packed into an aluminum DSC pan and gently tapped to get the powder to form a uniform layer on the bottom of the pan (Catalog numbers 900 793.901 for pans and 900 794.901 for lids). The DSC pan was hermetically sealed using a sample encapsulation press (part # 900680.902). Helium is used as the DSC purge gas at 30 ml/min. A Refrigerated Control System (RCS) provides the heat sink for the DSC, with helium as the circuit gas run at ˜110 ml/min. In modulated DSC experiments, the sample was first cooled to about 0° C., held isothermally for 10 minutes, and then heated at 2° C./minute to ˜200° C. The heating rate was modulated by superimposing a sinusoidal heating profile at ±0.318° C./min.

[2] = Powder flowability after exposure to ambient conditions; assay type: physicochemical
From the text: The particles made by Example 2 were further determined to be advantageous over pure non-crystalline forms. […] Accordingly, the non-crystalline losartan and PVP-VA containing powder formulation has an improved flowability for downstream process such as tablet formation.

## CCCCc1nc(Cl)c(CO)n1Cc1ccc(-c2ccccc2-c2nnn[nH]2)cc1.[K] [pure non-crystalline losartan, 2-butyl-4-chloro-1-[p-(o-1H-tetrazol-5-ylphenyl)benzyl]imidazole-5-methanol monopotassium salt]
[1]
  Tg midpoint: about 51 °C
  Tg onset: about 46 °C
[2]
  powder flowability: sticks and agglomerates
